# Laboratory results reported in US20200224168A1, “COMPOSITIONS AND METHODS FOR ENHANCING MATURATION STATES OF HEALTHY AND DISEASED CARDIOMYOCYTES” (University of Washington, priority 2017, published 2020).
# Assays:
# DMD mutant hPSC-CMs = test: Primary drug screen: intracellular ATP (CellTiter Glo) viability after hypotonic stress; conditions: 18 hours compound incubation, then 12.5% normal osmolarity for 30 minutes, relative to DMSO control wells, concentration not stated (10^-8 to 10^-5 M tested)
# [1] = system: mature DMD mutant hPSC-CMs; test: nanoMEA beat rate variability (Mean ΔBI), mature diseased cells; type: cell-based, human
# Description: Cells were exposed to various concentrations of nitrendipine or sildenafil citrate for seven days and measured their beat rate variability. […] Briefly, the ion permeable polymer Nafion (Sigma-Aldrich) was patterned onto commercial multi-well MEA plates (Axion Biosystems) via solvent-mediated capillary force lithography. Prior to cell seeding, control flat or nanoMEA Nafion surfaces were sterilized with UV-C light and then incubated for 6 hours at 37° C. with 5 μg/cm^2 human fibronectin (Life Technologies). hPSC-CMs were plated in droplet fashion at 25,000 cells per well of the MEA plate. Electrophysiological analysis of spontaneously beating cardiomyocytes was collected for 2 minutes using the AxIS software (Axion Biosystems). After raw data collection, the signal was filtered using a Butterworth band-pass filter and a 90 μV spike detection threshold. Field potential duration was automatically determined using a polynomial fit T-wave detected algorithm.
# hPSC-CMs = test: Immunofluorescent imaging, morphological and sarcomere analysis; type: cell-based, human; conditions: for cell area compared to Control: single maturation cue on flat surface, 3 weeks
# Description: For these studies, and all subsequent functional assays, the full ComboMat platform (Let7i+NP+T3) was compared to a viral vector Control (EV+Flat+No T3) and each maturation cue in isolation: NP (EV+NP+No T3), T3 (EV+Flat+T3), and Let7i (Let7i+Flat+No T3). […] Sarcomeres developed with a higher degree of directionality and order on NPs, resulting in more sarcomeres in register with one another (FIG. 2B).
# […] Samples were then permeabilized with 0.1% Triton X-100 (Sigma-Aldrich) in PBS and blocked with 5% goat serum. Cells were then incubated with mouse anti-α-actinin monoclonal antibody (1:1000, Sigma-Aldrich) in 1% goat serum overnight at 4° C. After washing with PBS, the samples were stained with Alexa-594 conjugated goat-anti-mouse secondary antibody (1:200, Invitrogen) as well as Alexafluo 488 labeled Phalloidin (1:200, Invitrogen). Nuclei counterstaining was performed with Vectashield containing DAPI (Vector Labs). A Nikon AIR confocal microscope with a Nikon CFI Plan Apo VC 60× water immersion objective was used to capture detailed immunofluorescent images for sarcomere analysis while a 20× air objective was used to obtain low-powered images of cells for measuring cell binucleation percentage. Cells from both objective powers were used to measure cell size. For morphological and sarcomere analysis, hPSC-CMs were plated at 10,000 cells/cm^2. […]
# Immunofluorescent images were quantified for sarcomere alignment, pattern strength, and sarcomere length using a scanning gradient/Fourier transform script in MATLAB (Mathworks). Each image was broken into several small segments which were individually analyzed. Using a directional derivative, the image gradient for each segment was calculated to determine the local alignment of sarcomeres. The pattern strength was then determined by calculating the maximum peaks of one-dimensional Fourier transforms in the direction of the gradient. The lengths of sarcomeres were calculated by measuring the intensity profiles of the sarcomeres along this same gradient direction. […]
# mdx mouse = conditions: cited from earlier work
# [2] = system: cells exposed to Control conditions or Normal hPSC-CMs exposed to the ComboMat platform; test: nanoMEA beat rate variability, immature or healthy cells; type: cell-based, human; conditions: seven days
# Description: Cells were exposed to various concentrations of nitrendipine or sildenafil citrate for seven days and measured their beat rate variability. […] Briefly, the ion permeable polymer Nafion (Sigma-Aldrich) was patterned onto commercial multi-well MEA plates (Axion Biosystems) via solvent-mediated capillary force lithography. Prior to cell seeding, control flat or nanoMEA Nafion surfaces were sterilized with UV-C light and then incubated for 6 hours at 37° C. with 5 μg/cm^2 human fibronectin (Life Technologies). hPSC-CMs were plated in droplet fashion at 25,000 cells per well of the MEA plate. Electrophysiological analysis of spontaneously beating cardiomyocytes was collected for 2 minutes using the AxIS software (Axion Biosystems). After raw data collection, the signal was filtered using a Butterworth band-pass filter and a 90 μV spike detection threshold. Field potential duration was automatically determined using a polynomial fit T-wave detected algorithm. Beat interval analysis on 30 consecutive beats was performed as previously published^26 (see Table 3).
# DMD patients = conditions: cited from earlier work
compound,measurement,setting,value
CN1CCc2c(c3ccccc3n2Cc2ccccc2)C1.CN1CCc2c(c3ccccc3n2Cc2ccccc2)C1.O=S(=O)(O)c1cccc2c(S(=O)(=O)O)cccc12 [MEBHYDROLIN NAPHTHALENESULFONATE],Average of % Viability,DMD mutant hPSC-CMs,172.81 ± 39.86%
CCOC(=O)C1=C(C)NC(C)=C(C(=O)OC)C1c1cccc([N+](=O)[O-])c1 (centres unmarked) [NITRENDIPINE],effect on spontaneous beating,"[1]; doses higher than 1 μM, seven days",ceased spontaneous beating
same,time for benefits to wash out after removal from cell culture medium,"[1]; mature DMD mutant hPSC-CMs, Mean ΔBI after washout",≤ 48 h
same,beat rate variability level restored,"[1]; mature DMD mutant hPSC-CMs, doses up to 1 μM, seven days",< 50 ms
"N[C@@H](Cc1cc(I)c(Oc2ccc(O)c(I)c2)c(I)c1)C(=O)O [T3, Triiodothyronine]",impact of long-term exposure on sarcomere development and beat rate variability,"hPSC-CMs; long-term T3 exposure (7, 14, 21 days), preliminary results",negative impact
same,cell area compared to Control,hPSC-CMs,significantly larger
CCCc1nn(C)c2c(=O)[nH]c(-c3cc(S(=O)(=O)N4CCN(C)CC4)ccc3OCC)nc12 [sildenafil],Mean ΔBI (beat rate variability) compared to DMSO carrier control,"[1]; mature (ComboMat) DMD mutant hPSC-CMs, seven days exposure, various concentrations",no effect
same,cardiac dysfunction in the mdx mouse,mdx mouse,showed promise in alleviating cardiac dysfunction
same,impact on beat rate variability,[2],Neither nitrendipine nor sildenafil had a significant impact
same,"cardiac symptoms in DMD patients (clinical trial, terminated early)",DMD patients,exacerbated cardiac symptoms
Let7i: Let-7i miRNA (UGAGGUAGUAGUUUGUGCU duplex) overexpressed from a lentiviral vector (listed as Homo sapiens),cell area compared to Control,hPSC-CMs,significantly larger
